pIC50, pKd: −log10 of the molar value. ≈ marks a conversion by molar mass, not a printed value. Calls of active or inactive are those of the source. The calls are words filed in the database; no cut-off is given here.
What was measured:
[1] = AUC in mouse at 10 mg/kg,po; format: ADME, organism-based; parameters: dose 10 mg/kg, route po; conditions: in vivo
[2] = molecular target: T1, Protein cereblon/Tyrosine-protein kinase BTK (Mus musculus) (UniProt P35991+Q8C7D2); assay: In vivo protac activity at CRBN/BTK in BALB/c mouse assessed as residual BTK protein in blood at 30 mg/kg,po administration measured after 24 hrs by flow cytomtery relative to control
[3] = molecular target: T2, Protein cereblon-BTK (Macaca fascicularis) (UniProt A0A2K5UTB3+A0A7N9IGT8); assay: In vivo protac activity at CRBN/BTK in cynomolgus monkey assessed as remaining BTK protein at 10 mg/kg,po administration measured after 24 hrs by flow cytomtery relative to control; format: functional, organism-based
[4] = molecular target: T1, Protein cereblon/Tyrosine-protein kinase BTK (Mus musculus); assay: In vivo protac activity at CRBN/BTK in BALB/c mouse assessed as residual BTK protein in blood at 3 mg/kg,po administration measured after 24 hrs by flow cytomtery relative to control
[5] = molecular target: T3, Protein cereblon/Zinc finger protein Aiolos (Macaca fascicularis) (UniProt A0A2K5UTB3+A0A2K5VJM3); assay: In vivo protac activity at CRBN/IKZF3 in cynomolgus monkey assessed as degradation of IKZF3 protein at 10 to 100 mg/kg,po administration by flow cytomtery; format: functional, organism-based; conditions: dose 10-100 mg/kg
Cereblon/Ikaros = Cereblon/Ikaros (Homo sapiens, UniProt Q96SW2+Q13422); assay: PROTAC activity at CRBN/IKZF1 in human T cell assessed as degradation of IKZF1 protein incubated for 24 hrs by flow cytometry; format: cell-based
[6] = molecular target: T3, Protein cereblon/Zinc finger protein Aiolos (Macaca fascicularis); assay: In vivo protac activity at CRBN/IKZF3 in cynomolgus monkey assessed as degradation of IKZF3 protein at 10 mg/kg,po administration for 14 days by flow cytomtery relative to control; format: functional, organism-based; conditions: time 14.0 day
[7] = molecular target: T1, Protein cereblon/Tyrosine-protein kinase BTK (Mus musculus); assay: In vivo protac activity at CRBN/BTK in CB17-SCID mouse assessed as degradation of BTK protein in B cells at 10 to 90 mg/kg,po administration for 25 days by flow cytomtery; format: functional, organism-based; conditions: dose 10-90 mg/kg, time 25.0 day
[8] = molecular target: T3, Protein cereblon/Zinc finger protein Aiolos (Macaca fascicularis); assay: In vivo protac activity at CRBN/IKZF3 in cynomolgus monkey assessed as degradation of IKZF3 protein at 100 mg/kg,po administration for 14 days by flow cytomtery relative to control; format: functional, organism-based; conditions: time 14.0 day
T-cell = assay: Activation of T-cellular function in anti-CD3/anti-CD28 activated human T cell assessed as increase in IL-2 secretion at 0.001 to 100 nM incubated for 24 hrs followed by anti-CD3/anti-CD28 stimulation by ELISA; format: functional, cell-based; conditions: dose 0.001-100 nM
[9] = AUC in rat at 10 mg/kg,po; format: ADME, organism-based; parameters: dose 10 mg/kg, route po; conditions: in vivo
[10] = molecular target: T2, Protein cereblon-BTK (Macaca fascicularis); assay: In vivo protac activity at CRBN/BTK in cynomolgus monkey assessed as degradation of BTK protein at po administration measured after 24 hrs by flow cytomtery; format: functional, organism-based
[11] = molecular target: Tyrosine-protein kinase BTK (Homo sapiens, UniProt Q06187); assay: Binding affinity to BTK (unknown origin) assessed as dissociation constant by surface plasmon resonance assay
[12] = molecular target: Tyrosine-protein kinase BTK (Homo sapiens, UniProt Q06187, C481S); assay: Binding affinity to BTK C481S mutant (unknown origin) assessed as dissociation constant by surface plasmon resonance assay
[13] = Plasma protein binding in dog; format: ADME, cell-free, Canis lupus familiaris; conditions: read-out: PPB (converted)
[14] = Observed clearance in cynomolgus monkey at 1 mg/kg,iv; format: ADME, organism-based, Macaca fascicularis; conditions: in vivo
[15] = Cmax in cynomolgus monkey at 10 mg/kg,po administration for 14 days; format: ADME, organism-based, Macaca fascicularis; parameters: dose 10 mg/kg, time 14 day, route po; conditions: in vivo
TMD8 [16] = assay: Antitumor activity against human TMD8 cells expressing BTK C481S mutant xenografted in CB17-SCID mouse assessed as tumor growth inhibition at 30 mg/kg,po administration for 25 days; format: functional; conditions: TMD8, 600 h, time 25 day, read-out: TGI
[17] = molecular target: Protein cereblon-BTK (Canis lupus familiaris) (UniProt A0A8I3NIQ5+A0A8I3P7Z3); assay: In vivo protac activity at CRBN/BTK in Beagle dog assessed as remaining BTK protein at 10 mg/kg,po administration measured after 24 hrs by flow cytomtery relative to control; format: functional, organism-based
[18] = Aqueous solubility of the compound in PBS at pH 7.4; format: physicochemical
[19] = molecular target: T3, Protein cereblon/Zinc finger protein Aiolos (Macaca fascicularis); assay: In vivo protac activity at CRBN/IKZF3 in cynomolgus monkey assessed as degradation of IKZF3 protein at 30 mg/kg,po administration for 14 days by flow cytomtery relative to control; format: functional, organism-based; conditions: time 14.0 day
[20] = molecular target: T4, Protein cereblon/Tyrosine-protein kinase BTK (Homo sapiens, UniProt Q06187+Q96SW2); assay: PROTAC activity at CRBN/BTK in human TMD8 cells assessed as degradation of BTK protein incubated for 4 hrs by HTRF assay; format: cell-based
Target sequence in this assay (Q06187 whole entry): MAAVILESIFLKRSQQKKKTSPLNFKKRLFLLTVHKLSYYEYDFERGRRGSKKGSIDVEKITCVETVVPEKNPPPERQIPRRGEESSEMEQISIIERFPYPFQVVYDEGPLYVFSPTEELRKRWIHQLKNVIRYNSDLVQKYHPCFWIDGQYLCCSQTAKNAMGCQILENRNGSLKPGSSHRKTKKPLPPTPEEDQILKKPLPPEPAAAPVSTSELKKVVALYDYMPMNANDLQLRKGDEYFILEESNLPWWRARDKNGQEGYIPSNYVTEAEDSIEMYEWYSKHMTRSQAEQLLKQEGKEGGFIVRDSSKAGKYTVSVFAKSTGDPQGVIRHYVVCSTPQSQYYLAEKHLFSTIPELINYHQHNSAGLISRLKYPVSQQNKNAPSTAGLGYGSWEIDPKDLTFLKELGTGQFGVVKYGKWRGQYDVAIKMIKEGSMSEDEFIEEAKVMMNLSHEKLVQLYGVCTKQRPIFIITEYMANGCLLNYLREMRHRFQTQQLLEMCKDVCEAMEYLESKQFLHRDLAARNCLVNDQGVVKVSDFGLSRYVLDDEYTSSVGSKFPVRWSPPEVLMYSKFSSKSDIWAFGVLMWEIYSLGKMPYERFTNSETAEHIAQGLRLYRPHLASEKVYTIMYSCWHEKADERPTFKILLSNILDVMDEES
Target sequence in this assay (Q96SW2 whole entry): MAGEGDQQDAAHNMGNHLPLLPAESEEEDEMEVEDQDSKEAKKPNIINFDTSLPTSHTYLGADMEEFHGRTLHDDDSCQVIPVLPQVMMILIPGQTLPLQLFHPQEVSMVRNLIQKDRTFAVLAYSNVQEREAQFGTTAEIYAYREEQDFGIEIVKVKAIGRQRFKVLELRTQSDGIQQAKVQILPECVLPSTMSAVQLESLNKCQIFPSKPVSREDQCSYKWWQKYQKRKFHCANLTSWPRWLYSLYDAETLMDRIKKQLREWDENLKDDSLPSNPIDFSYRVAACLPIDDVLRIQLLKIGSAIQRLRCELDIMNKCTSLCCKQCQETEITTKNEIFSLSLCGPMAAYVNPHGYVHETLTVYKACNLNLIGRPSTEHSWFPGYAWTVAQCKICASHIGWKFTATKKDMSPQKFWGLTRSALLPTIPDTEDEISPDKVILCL

[21] = molecular target: T1, Protein cereblon/Tyrosine-protein kinase BTK (Mus musculus); assay: In vivo protac activity at CRBN/BTK in BALB/c mouse assessed as residual BTK protein in blood at 10 mg/kg,po administration measured after 24 hrs by flow cytomtery relative to control
[22] = molecular target: T4, Protein cereblon/Tyrosine-protein kinase BTK; assay: PROTAC activity at CRBN/BTK in human TMD8 cells assessed as maximal degradation of BTK protein incubated for 4 hrs by HTRF assay relative to control; format: cell-based
[23] = AUC in cynomolgus monkey at 10 mg/kg,po; format: ADME, organism-based, Macaca fascicularis; parameters: dose 10 mg/kg, route po; conditions: in vivo
TMD8 [24] = assay: Antitumor activity against human TMD8 cells expressing wild type BTK xenografted in CB17-SCID mouse assessed as tumor growth inhibition at 10 mg/kg,po administration for 25 days; format: functional; conditions: TMD8, 600 h, time 25 day, read-out: TGI
TMD8 [25] = assay: Antitumor activity against human TMD8 cells expressing wild type BTK xenografted in CB17-SCID mouse assessed as tumor growth inhibition at 30 mg/kg,po administration for 25 days; format: functional; conditions: TMD8, 600 h, time 25 day, read-out: TGI
Cytochrome P450 2C9 = Cytochrome P450 2C9 (Homo sapiens, UniProt P11712); assay: Inhibition of CYP2C9 (unknown origin); format: ADME
[26] = Drug uptake in cynomolgus monkey plasma at po administration measured for 24 hrs; format: ADME, organism-based, Macaca fascicularis; conditions: in vivo
[27] = molecular target: Protein cereblon/Zinc finger protein Aiolos (Homo sapiens, UniProt Q96SW2+Q9UKT9); assay: In vivo protac activity at CRBN/IKZF3 in CB17-SCID mouse xenografted with human TMD8 cells assessed as degradation of IKZF3 protein in tumor at 10 to 90 mg/kg,po administration for 25 days by flow cytomtery; format: functional, organism-based; conditions: dose 10-90 mg/kg, time 25.0 day
[28] = system: Protein cereblon/Tyrosine-protein kinase BTK (Homo sapiens); assay: In vivo protac activity at CRBN/BTK in CB17-SCID mouse xenografted with human TMD8 cells assessed as degradation of BTK protein in tumor at 10 to 90 mg/kg,po administration for 25 days by flow cytomtery; conditions: dose 10-90 mg/kg, time 25.0 day
[29] = Plasma protein binding in rat; format: ADME, cell-free; conditions: read-out: PPB
[30] = Observed clearance in mouse at 1 mg/kg,iv; format: ADME, organism-based; conditions: in vivo

T3 sequence (A0A2K5UTB3 1-488): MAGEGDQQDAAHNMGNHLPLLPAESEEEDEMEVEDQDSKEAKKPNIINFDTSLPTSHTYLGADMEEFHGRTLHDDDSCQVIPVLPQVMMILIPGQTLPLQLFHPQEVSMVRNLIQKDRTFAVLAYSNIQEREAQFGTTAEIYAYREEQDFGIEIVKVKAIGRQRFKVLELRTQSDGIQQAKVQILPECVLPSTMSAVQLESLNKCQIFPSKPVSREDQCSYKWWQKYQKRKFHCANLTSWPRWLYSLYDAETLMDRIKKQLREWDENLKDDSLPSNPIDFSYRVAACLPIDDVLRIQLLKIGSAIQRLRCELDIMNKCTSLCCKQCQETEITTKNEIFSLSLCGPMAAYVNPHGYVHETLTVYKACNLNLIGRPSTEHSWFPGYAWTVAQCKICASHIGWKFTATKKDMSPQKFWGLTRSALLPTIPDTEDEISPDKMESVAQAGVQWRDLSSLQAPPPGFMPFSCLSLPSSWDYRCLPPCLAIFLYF
T3 sequence (A0A2K5VJM3 entry or part of it partner): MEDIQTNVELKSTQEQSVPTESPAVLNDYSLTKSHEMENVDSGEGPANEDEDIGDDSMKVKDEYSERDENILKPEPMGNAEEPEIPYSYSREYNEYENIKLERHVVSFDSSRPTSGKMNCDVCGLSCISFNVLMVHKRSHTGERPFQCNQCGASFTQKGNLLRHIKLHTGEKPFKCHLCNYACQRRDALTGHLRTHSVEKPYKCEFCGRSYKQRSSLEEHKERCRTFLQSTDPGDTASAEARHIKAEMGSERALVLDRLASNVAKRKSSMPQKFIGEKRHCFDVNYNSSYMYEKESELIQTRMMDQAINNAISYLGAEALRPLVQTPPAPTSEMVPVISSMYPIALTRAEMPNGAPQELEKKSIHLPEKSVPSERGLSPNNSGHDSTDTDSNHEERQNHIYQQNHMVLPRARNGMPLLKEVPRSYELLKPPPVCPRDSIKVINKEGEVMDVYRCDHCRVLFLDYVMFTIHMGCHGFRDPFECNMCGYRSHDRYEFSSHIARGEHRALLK
T1 sequence (P35991 whole entry, looked up): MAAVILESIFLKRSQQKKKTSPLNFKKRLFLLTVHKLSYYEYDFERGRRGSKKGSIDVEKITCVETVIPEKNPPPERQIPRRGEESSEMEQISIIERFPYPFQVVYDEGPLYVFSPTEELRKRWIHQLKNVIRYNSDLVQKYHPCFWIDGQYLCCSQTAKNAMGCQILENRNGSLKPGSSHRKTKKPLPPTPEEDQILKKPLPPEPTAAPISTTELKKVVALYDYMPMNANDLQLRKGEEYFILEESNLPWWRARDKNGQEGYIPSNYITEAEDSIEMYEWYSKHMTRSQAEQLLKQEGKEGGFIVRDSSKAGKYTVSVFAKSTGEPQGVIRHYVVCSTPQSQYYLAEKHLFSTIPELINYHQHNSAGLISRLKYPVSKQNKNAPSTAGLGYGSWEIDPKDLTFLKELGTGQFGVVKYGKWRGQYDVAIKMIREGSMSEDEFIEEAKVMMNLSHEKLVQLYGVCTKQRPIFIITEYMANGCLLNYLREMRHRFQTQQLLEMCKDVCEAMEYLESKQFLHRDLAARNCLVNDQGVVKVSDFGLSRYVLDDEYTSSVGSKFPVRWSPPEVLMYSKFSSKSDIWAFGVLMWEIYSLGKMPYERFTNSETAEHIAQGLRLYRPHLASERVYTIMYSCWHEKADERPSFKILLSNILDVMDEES
T1 sequence (Q8C7D2 whole entry, looked up): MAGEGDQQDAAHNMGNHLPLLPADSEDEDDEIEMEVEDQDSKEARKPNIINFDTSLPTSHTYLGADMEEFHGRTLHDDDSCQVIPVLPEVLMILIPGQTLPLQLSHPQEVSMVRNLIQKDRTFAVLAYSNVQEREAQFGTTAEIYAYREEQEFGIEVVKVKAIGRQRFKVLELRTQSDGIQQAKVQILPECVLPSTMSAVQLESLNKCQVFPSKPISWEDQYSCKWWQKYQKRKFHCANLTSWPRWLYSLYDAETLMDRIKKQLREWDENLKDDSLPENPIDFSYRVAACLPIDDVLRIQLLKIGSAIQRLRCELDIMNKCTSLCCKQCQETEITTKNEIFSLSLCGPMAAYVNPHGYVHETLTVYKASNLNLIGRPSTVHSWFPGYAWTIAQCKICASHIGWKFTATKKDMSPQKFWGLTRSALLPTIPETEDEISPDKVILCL
T2 sequence (A0A2K5UTB3 1-488): as the sequence (A0A2K5UTB3 1-488) above
T2 sequence (A0A7N9IGT8 entry or part of it partner): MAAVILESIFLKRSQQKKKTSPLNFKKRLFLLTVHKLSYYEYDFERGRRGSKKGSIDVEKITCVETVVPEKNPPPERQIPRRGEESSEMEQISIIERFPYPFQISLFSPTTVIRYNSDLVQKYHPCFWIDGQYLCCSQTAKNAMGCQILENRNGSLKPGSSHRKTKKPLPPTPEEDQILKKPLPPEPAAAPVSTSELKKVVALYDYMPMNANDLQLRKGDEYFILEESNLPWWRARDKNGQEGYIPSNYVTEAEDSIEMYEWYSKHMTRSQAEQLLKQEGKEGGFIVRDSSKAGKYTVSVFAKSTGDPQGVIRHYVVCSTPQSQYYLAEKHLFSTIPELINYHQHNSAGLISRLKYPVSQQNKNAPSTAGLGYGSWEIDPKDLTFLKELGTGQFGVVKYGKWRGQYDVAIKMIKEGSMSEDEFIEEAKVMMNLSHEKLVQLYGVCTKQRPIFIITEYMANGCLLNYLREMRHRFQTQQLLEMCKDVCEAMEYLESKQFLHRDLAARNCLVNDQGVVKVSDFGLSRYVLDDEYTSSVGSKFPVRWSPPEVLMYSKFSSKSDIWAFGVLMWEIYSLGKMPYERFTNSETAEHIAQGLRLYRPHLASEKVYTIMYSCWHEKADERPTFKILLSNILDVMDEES
Protein cereblon-BTK (Canis lupus familiaris), sequence (A0A8I3NIQ5 1-444): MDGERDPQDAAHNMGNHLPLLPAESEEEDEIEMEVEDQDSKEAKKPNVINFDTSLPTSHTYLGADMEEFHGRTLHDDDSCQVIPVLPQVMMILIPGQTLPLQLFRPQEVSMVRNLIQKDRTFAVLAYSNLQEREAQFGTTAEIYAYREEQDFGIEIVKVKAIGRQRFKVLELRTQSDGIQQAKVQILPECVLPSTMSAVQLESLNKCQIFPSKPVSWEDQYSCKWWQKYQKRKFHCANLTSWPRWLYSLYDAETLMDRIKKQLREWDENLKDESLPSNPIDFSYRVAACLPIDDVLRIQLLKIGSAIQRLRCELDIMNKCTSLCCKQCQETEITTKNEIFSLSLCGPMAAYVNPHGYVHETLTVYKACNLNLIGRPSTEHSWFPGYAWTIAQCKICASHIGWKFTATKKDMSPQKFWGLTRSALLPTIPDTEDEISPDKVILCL
Protein cereblon-BTK (Canis lupus familiaris), sequence (A0A8I3P7Z3 entry or part of it partner): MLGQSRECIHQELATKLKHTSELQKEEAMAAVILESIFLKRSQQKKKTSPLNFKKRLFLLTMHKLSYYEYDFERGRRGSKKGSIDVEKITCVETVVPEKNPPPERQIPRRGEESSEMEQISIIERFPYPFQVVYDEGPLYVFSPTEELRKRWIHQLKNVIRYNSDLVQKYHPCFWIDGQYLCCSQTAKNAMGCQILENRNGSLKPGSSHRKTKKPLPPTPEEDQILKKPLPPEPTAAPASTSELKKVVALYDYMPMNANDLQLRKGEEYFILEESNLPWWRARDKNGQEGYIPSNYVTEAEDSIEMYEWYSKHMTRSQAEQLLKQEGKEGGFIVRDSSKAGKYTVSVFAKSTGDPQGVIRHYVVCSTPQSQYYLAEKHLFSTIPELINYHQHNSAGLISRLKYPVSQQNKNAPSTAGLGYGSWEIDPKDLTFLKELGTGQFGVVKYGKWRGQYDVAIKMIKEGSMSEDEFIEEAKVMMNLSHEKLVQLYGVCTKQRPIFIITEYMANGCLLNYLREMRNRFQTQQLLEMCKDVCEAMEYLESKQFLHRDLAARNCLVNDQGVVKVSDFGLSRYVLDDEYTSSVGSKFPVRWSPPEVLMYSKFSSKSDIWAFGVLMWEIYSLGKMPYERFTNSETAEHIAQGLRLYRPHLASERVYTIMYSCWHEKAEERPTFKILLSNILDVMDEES

NC(=O)c1ncc(N2CCCCC2)nc1Nc1ccc(C2CCN(C[C@H]3CCN(c4ccc5c(c4)C(=O)N(C4CCC(=O)NC4=O)C5=O)C3)CC2)cc1 (stereo partly drawn) [ZELEBRUDOMIDE]
AUC [1]: 16 µM·h
residual activity [2]: 12%
Activity [3]: 10%
residual activity [4]: 36%
Activity [5]: inactive
DC50 (Cereblon/Ikaros): 57 nM
Activity [6]: 76%
Activity [7]: Active
Activity [8]: 43%
Activity (T-cell): Active
AUC [9]: 0.89 µM·h
Activity [10]: Dose-Dependent Effect
pKd [11]: 7.35
pKd [12]: 7.74
fraction unbound [13]: 0.025
clearance [14]: 22.2 mL/min/kg
Cmax [15]: 25.4 ng/mL
inhibition in vivo at 30 mg/kg (TMD8 [16]): 43%
Activity [17]: 17%
solubility [18]: 0.2 µM (≈ 0.144 µg/mL)
Activity [19]: 55%
DC50 [20]: 4.5 nM
residual activity [21]: 21%
Emax [22]: 94%
AUC [23]: 0.09 µM·h
inhibition in vivo at 10 mg/kg (TMD8 [24]): 35%
inhibition in vivo at 30 mg/kg (TMD8 [25]): 73%
pIC50 (Cytochrome P450 2C9): < 4.52
Drug uptake [26]: Dose-Dependent Effect
Activity [27]: Active
Activity [28]: Active
fraction unbound [29]: < 0.015
clearance [30]: 5.2 mL/min/kg

Source: ChEMBL document CHEMBL5344441, “Discovery and Preclinical Pharmacology of NX-2127, an Orally Bioavailable Degrader of Bruton's Tyrosine Kinase with Immunomodulatory Activity for the Treatment of Patients with B Cell Malignancies” (J Med Chem, 2024)
